Experimental data published in US7674807B2, “Heterocycle-substituted n-phenyl-phthalamide derivatives, related compounds and their use as insecticides” (Bayer CropScience AG, priority 2004, dated 2010).

Columns and labels:
[1] = test system: Myzus persicae resistant to organophosphorous agents and carbamates; experiment: Test against Myzus persicae resistant to organophosphorous agents and carbamates (spray on eggplant seedlings); assay type: in vivo; conditions: 100 ppm concentration of the effective component; 7 days after spraying; green house of 28° C.
Method: About 30 bred Myzus persicae resistant to organophosphorous agents and carbamates were inoculated per 1 seedling of eggplant planted in a vinyl pot of 6 cm diameter. One day after the inoculation, a sufficient amount of a diluted aqueous solution of a prescribed concentration of an active compound prepared as mentioned above, was sprayed by using a spray gun. After spraying it was placed in a green house of 28° C. and the rate of death was calculated 7 days after the spraying. Test was repeated twice.

[2] = test system: larva of Cnaphalocrocis medinalis Guenee; experiment: Test against larva of Cnaphalocrocis medinalis Guenee (sprayed paddy rice foliage); assay type: in vivo; conditions: 20 ppm concentration of the active component; second instar larvae; counted after 7 days; 25° C.
Procedure, shortened: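 Potted rice (Tamanishiki) sprayed with aqueous dilutions of compound at the prescribed concentration; air-dried leaf pieces placed in dishes with five 2nd-instar larvae at 25° C, fresh treated foliage added at days 2 and 4. Mortality counted at day 7, averaged over 2 dishes.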

[3] = test system: larva of Spodoptera litura; experiment: Test against larva of Spodoptera litura (leaf dip, sweet potato leaves); assay type: in vivo; conditions: 20 ppm concentration of the active component; third instar larvae; counted after 7 days; 25° C.
Procedure, shortened: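 Sweet potato leaves were dipped in emulsified compound diluted with water, air-dried, and given to 10 third-instar larvae per dish at 25° C, with fresh leaves added on days 2 and 4. Mortality was counted after 7 days and averaged over 2 dishes.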

melting point [°C] | Structure (SMILES) | controlling effect, rate of death [1] [%] | controlling effect, rate of death [2] [%] | controlling effect, rate of death [3] [%]
 | Cc1cc(Cn2nc(C(F)(F)F)nc2C(F)(F)F)ccc1NC(=O)c1cccc(Br)c1C(=O)NC(C)CS(C)(=O)=O (stereo not shown) [compound 181] | 100 | 100 | 100
79 to 86 | CSCC(C)(C)NC(=O)c1c(I)cccc1C(=O)Nc1ccc(C(C)n2ccc(C(F)(F)F)n2)cc1C (stereo not shown) [compound 558, N^2-(1,1-dimethyl-2-methylsulfanyl-ethyl)-3-iodo-N^1-{2-methyl-4-[1-(3-trifluoromethyl-1H-pyrazol-1-yl)-ethyl]-phenyl}-phthalamide] |  |  | 
 | Cc1cc(C(C)n2nc(C(F)(F)C(F)(F)F)nc2C(F)(F)F)ccc1NC(=O)c1cccc(Cl)c1C(=O)N[C@@H](C)C[S+](C)[O-] (stereo partly shown) [compound 579] | 100 | 100 | 100
